Experiments:
[1] = Analyte composition of a subject after consumption (Table 2, simplified illustrative data set); type: in vivo, human; conditions: for Analyte level, intoxicated state: 1 hr after consumption, THC induced intoxicated state; for Analyte level, post-intoxicated state: 36 hr after consumption
From the text: For example, which is not to be considered limiting, in a THC induced intoxicated state, a subject may comprise the analyte composition presented in Table 1. It is to be understood that this table presents a simplified data set to exemplify the method described herein. Other analytes, which may include known analytes or ghost analytes, are indicated as analytes A, B . . . C; A′, B′, . . . C′; A″, B″ . . . C″. These other analytes may increase or decrease in response to, or that are correlated with, the physiological condition and they may be included in this analysis.
In this example, the result may be considered positive for a THC-induced intoxicated state if the Index is greater than a preset value which is determined based on an analysis of the analytes determined in subjects who were exposed to a control treatment, or a range of THC under controlled conditions, for example an Index value of (2+A)/(C+ . . . +C) may be an indication of a positive result for the state of THC-induced intoxication.

[2] = cited from earlier work

Row | Compound | Analyte level, intoxicated state [1] [ng/mL] | Analyte level, post-intoxicated state [1] [ng/mL] | Residual THC in serum ([2]; chronic users of marijuana, detected for 24 to 48 hours or longer, serum) [ng/mL] | Residual THC in whole blood ([2]; chronic users of marijuana, detected for 24 to 48 hours or longer, whole blood) [ng/mL] | Time of THC peak ([2]; smoked marijuana, after inhaling) | THC level remaining ([2]; smoked marijuana, for 8 hours or more) [ng/mL]
1 | CCCCCc1cc(O)c2c(c1)OC(C)(C)[C@@H]1CCC(C(=O)O)=C[C@@H]21 [THC-COOH, 11-nor-9-carboxy-THC] | 5 | 11 |  |  |  | 
2 | CCCCCc1cc(O)c2c(c1)OC(C)(C)C1CCC(CO)=CC21 (stereo not shown) [11-OH-THC, 11-hydroxy THC] | 5 | 2 |  |  |  | 
3 | CCCCCc1cc(O)c2c(c1)OC(C)(C)[C@@H]1CCC(C)=C[C@@H]21 [THC, delta-9-tetrahydrocannabinol] | 78 | 8 | 1.0 to 6.4 | 0.5 to 3.2 | first few minutes | 1 to 2
